Earlier results, collected in PMC2912446 (ACS chemical biology, 2010).

Tested on: GPR30
Conditions: read-out: GPR30 binding affinity; parent small molecules

Row | SMILES | IC50
2 | CC(=O)c1ccc2c(c1)[C@@H]1C=CC[C@@H]1[C@H](c1cc3c(cc1Br)OCO3)N2 [G-1] | ~11 nM
